Read-outs that look alike come from different tables or passages of the source. Where a SMILES comes first, the peptide text is derived from it. Where no end group is shown, it is not given here. [ ]: non-standard residue; d: D form. pY = N[CH](Cc1ccc(OP(=O)(O)O)cc1)C(=O)O; pT = C[CH](OP(=O)(O)O)[CH](N)C(=O)O; pS = N[CH](COP(=O)(O)O)C(=O)O

Usually EC50 stands for the concentration that produces a half-maximal response.

The target in assay [1] is feline calcium-sensing receptor (CaSR) (feline (cat)). Kind of assay: cell-based or functional assay.
The target of a further assay is feline CaSR (Felis catus, UniProt A0ABI7YY68). Kind of assay: HEK T-Rex/natClytin-fCaSR luminescence assay, activation of feline CaSR. The format is cell-based. As to the method:
The cells used for the assays were HEK293 derived HEK T-Rex/natClytin-fCaSR cells. For the assays, the cells were plated on […] culture plates with a clear bottom for reading the luminescence in the wells. The setup of the assay for standard assays on the FlexStation was as follows. The wells containing the cells had 20 ul of calcium-free Tyrode's buffer at the beginning of the assay. 20 ul of each ligand at a specified concentration was injected on the cells and the response of the cells was measured for 90 sec at 1.94 sec intervals. The resulting curves were analyzed and reduced using the software provided by Molecular Devices, SoftMax Pro (version 5.4.1).
Each peptide was assayed on two separate occasions at least, with four repetitions of each concentration applied to the cells. In parallel, the same tests were run on a mock cell line with a mock vector, in order to confirm the specificity of any signals measured.
The data obtained from the FlexStation was used to trace dose-response curves for each ligand. These graphs were plotted using GraphPad Prism 7.03 software with the [Agonist] vs. response—Variable slope (four parameters) plot. The same formula was used to calculate the EC50 value with the associated Standard Error. Each plot contains the mean data points with an SEM calculated by the software for each data point.
One of the concerns during the planning of these assays was that it was possible that some of these peptides could bind the divalent calcium cation and cause a non-specific response from the receptor. In order to ensure that the interaction between the receptor and the peptides was measured and not with calcium, the peptides were synthesized in guaranteed calcium-free conditions. Similarly, all the assays were performed using calcium-free reagents.

Assay [2] deals with feline Kokumi taste receptor (f-CaSR). The assay is described as follows: feline Kokumi taste receptor assay (f-CaSR), agonistic activity of isolated samples. The format is cell-based. Conditions: isolated samples from hydrolysate T648. As to the method:
Aliquots of the isolated samples were tested for their agonistic activity in feline Kokumi taste receptor assays (f-CaSR).

Assay [3] has as its target T1, feline calcium-sensing receptor (CaSR) (feline (cat)).
T1 chain: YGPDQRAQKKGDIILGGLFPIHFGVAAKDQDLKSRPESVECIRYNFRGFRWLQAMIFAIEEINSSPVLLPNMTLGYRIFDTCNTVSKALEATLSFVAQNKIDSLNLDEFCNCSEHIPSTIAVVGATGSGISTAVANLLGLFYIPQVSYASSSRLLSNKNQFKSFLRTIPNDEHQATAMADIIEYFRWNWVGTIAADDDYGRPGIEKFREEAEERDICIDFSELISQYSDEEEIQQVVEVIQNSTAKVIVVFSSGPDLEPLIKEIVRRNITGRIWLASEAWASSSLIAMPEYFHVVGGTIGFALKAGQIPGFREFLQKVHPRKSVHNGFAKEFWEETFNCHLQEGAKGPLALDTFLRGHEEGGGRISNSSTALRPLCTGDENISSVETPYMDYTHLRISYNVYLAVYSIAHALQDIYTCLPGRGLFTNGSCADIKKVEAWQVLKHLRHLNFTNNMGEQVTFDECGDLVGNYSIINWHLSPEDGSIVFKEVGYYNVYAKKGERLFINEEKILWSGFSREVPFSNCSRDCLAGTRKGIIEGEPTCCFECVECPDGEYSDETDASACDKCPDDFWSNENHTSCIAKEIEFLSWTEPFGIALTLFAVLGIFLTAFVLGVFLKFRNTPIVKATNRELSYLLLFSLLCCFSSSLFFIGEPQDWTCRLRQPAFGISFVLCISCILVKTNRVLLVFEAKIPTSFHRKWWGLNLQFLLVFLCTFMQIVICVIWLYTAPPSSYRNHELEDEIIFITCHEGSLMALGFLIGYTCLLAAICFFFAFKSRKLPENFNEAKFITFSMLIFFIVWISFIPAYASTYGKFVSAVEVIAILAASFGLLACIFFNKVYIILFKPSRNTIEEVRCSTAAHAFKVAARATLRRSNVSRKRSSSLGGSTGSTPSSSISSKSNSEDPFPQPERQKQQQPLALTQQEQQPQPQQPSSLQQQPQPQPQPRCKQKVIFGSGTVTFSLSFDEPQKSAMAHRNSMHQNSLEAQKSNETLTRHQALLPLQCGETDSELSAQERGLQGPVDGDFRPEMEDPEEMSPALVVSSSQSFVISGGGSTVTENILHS
Kind of assay: cell-based or functional assay.

[4] abbreviates: HEK T-Rex/natClytin-fCaSR cells, calcium-free Tyrode's buffer, ≈ values are model estimates without standard error, read-out: EC50 ± Std Error.

As for IG[pS]E[pS]TEDQ, the f-CaSR activity (EC50) in assay [1] was 2 mM. The molecule `NC(CO)C(=O)NC(CCC(=O)O)C(=O)NC(CO)C(=O)O` (stereo not drawn) [Ser-Glu-Ser] (H-Ser-Glu-Ser-OH; configuration not given here) registered an EC50 at feline CaSR of 3.56 ± 0.11 mM. As to `[Ca+2].[Cl-].[Cl-]` [CaC12, CaCl2, reference compound], the EC50 on feline CaSR (setting [4]) is 1.6 ± 0.06 mM.

On to `[Cl-].[Cl-].[Mg+2]` [MgC12, reference compound], for which, on feline CaSR (setting [4]), the EC50 was 6.72 ± 0.13 mM. In turn, `NC(CC(=O)O)C(=O)NC(CCC(=O)O)C(=O)NC(CCC(=O)O)C(=O)O` (stereo not drawn) [Asp-Glu-Glu] (H-Asp-Glu-Glu-OH; configuration not given here) returned an EC50 at feline CaSR of 2.59 ± 0.09 mM.

EIVPN[pS]AEE: the f-CaSR activity (EC50) in assay [1] is 3.16 mM. Consider `N[C@@H](CCC(=O)N[C@@H](Cc1ccc(O)cc1)C(=O)O)C(=O)O` [γ-Glu-Tyr, reference compound], for which the EC50 on feline CaSR (setting [4]) was approximately 6.9 mM. For the molecule `CC(OP(=O)(O)O)C(N)C(=O)NC(CCC(=O)O)C(=O)NC(C(=O)O)C(C)OP(=O)(O)O` (stereo not drawn) [pThr-Glu-pThr] (H-[pT]-Glu-[pT]-OH; configuration not given here), on feline CaSR (setting [4]), the EC50 was 1.98 ± 0.07 mM. `N[C@@H](CCC(=O)O)C(=O)O` [Glu, glutamic acid, reference compound] showed an EC50 on feline CaSR of approximately 5.9 mM. In turn, `CC(C)C(NC(=O)C(N)CC(=O)O)C(=O)NC(CC(=O)O)C(=O)O` (stereo not drawn) [Asp-Val-Asp] (H-Asp-Val-Asp-OH; configuration not given here) returned an EC50 at feline CaSR of 3.41 ± 0.05 mM. The same measure, in the same setting: with `CC(C)C(NC(=O)C(N)CS)C(=O)NC(CS)C(=O)O` (stereo not drawn) [Cys-Val-Cys] (H-Cys-Val-Cys-OH; configuration not given here) the figure was approximately 12.6 mM. In the case of `CC(C)[C@H](NC(=O)CC[C@H](N)C(=O)O)C(=O)NCC(=O)O` [γ-Glu-Val-Gly, reference compound], the EC50 on feline CaSR is 5.78 ± 2.41 mM. In the case of `CC[C@H](C)[C@H](NC(=O)[C@@H](N)CCC(=O)O)C(=O)N[C@H](C(=O)N1CCC[C@H]1C(=O)N[C@@H](CC(N)=O)C(=O)N[C@@H](COP(=O)(O)O)C(=O)N[C@@H](C)C(=O)N[C@@H](CCC(=O)O)C(=O)N[C@@H](CCC(=O)O)C(=O)O)C(C)C` [BC 09, Glu-Ile-Val-Pro-Asn-pSer-Ala-Glu-Glu] (H-EIVPN[pS]AEE-OH; N-terminus and C-terminus assumed), the EC50 in assay [2] came to 3.16 mM. With `N[C@@H](CCC(=O)N[C@@H](Cc1ccccc1)C(=O)O)C(=O)O` [γ-Glu-Phe, reference compound], the EC50 at feline CaSR (setting [4]) is approximately 7.8 mM. For the molecule 5-oxoproline-Lys-Glu-Pro [BC 02], the “f-CaSR activity (EC50)” value in assay [2] was “Not active”. In the case of `N[C@@H](CCC(=O)N[C@@H](CS)C(=O)NCC(=O)O)C(=O)O` [GSH, reference compound], the 50% effective concentration (EC50) at feline CaSR (setting [4]) was 6.71 ± 0.57 mM. As to `CC(C)C(NC(=O)C(N)CC(=O)O)C(=O)NC(CCC(=O)O)C(=O)O` (stereo not drawn) [BC 01, Asp-Val-Glu] (H-Asp-Val-Glu-OH; configuration not given here), the EC50 in assay [2] was 6.32 mM; on feline CaSR it was 3.3 ± 0.15 mM.

For the molecule `CC[C@H](C)[C@H](NC(=O)[C@@H](N)CC(=O)O)C(=O)NCC(=O)N[C@@H](COP(=O)(O)O)C(=O)N[C@@H](CCC(=O)O)C(=O)N[C@@H](COP(=O)(O)O)C(=O)N[C@H](C(=O)N[C@@H](CCC(=O)O)C(=O)N[C@@H](CC(=O)O)C(=O)N[C@@H](CCC(N)=O)C(=O)N[C@@H](C)C(=O)O)[C@@H](C)O` [BC 10, Asp-Ile-Gly-pSer-Glu-pSer-Thr-Glu-Asp-Gln-Ala] (H-DIG[pS]E[pS]TEDQA-OH; N-terminus and C-terminus assumed), the midpoint of the response in assay [2], the EC50, lay at 2 mM. The same measure, in the same setting: with `CC[C@H](C)[C@H](N)C(=O)NCC(=O)N[C@@H](COP(=O)(O)O)C(=O)N[C@@H](CCC(=O)O)C(=O)N[C@@H](COP(=O)(O)O)C(=O)N[C@H](C(=O)N[C@@H](CCC(=O)O)C(=O)N[C@@H](CC(=O)O)C(=O)N[C@@H](CCC(N)=O)C(=O)N[C@@H](C)C(=O)O)[C@@H](C)O` [BC 08, Ile-Gly-pSer-Glu-pSer-Thr-Glu-Asp-Gln-Ala] (H-IG[pS]E[pS]TEDQA-OH; N-terminus and C-terminus assumed) the figure was 2 mM. As for `NC(COP(=O)(O)O)C(=O)NC(CCC(=O)O)C(=O)NC(COP(=O)(O)O)C(=O)O` (stereo not drawn) [pSer-Glu-pSer] (H-[pS]-Glu-[pS]-OH; configuration not given here), the EC50 on feline CaSR (setting [4]) was 3.04 ± 0.21 mM.

Take `CC(C)C(NC(=O)C(N)CCC(=O)O)C(=O)NC(CCC(=O)O)C(=O)O` (stereo not drawn) [Glu-Val-Glu] (H-Glu-Val-Glu-OH; configuration not given here): the EC50 on feline CaSR was determined as 3.54 ± 0.05 mM. Still for that read-out and setting: with `CC(C)C(NC(=O)C(N)COP(=O)(O)O)C(=O)NC(CCC(=O)O)C(=O)O` (stereo not drawn) [pSer-Val-Glu] (H-[pS]-Val-Glu-OH; configuration not given here) the figure was 3.04 ± 0.03 mM. For the molecule `N[C@@H](CC(=O)O)C(=O)O` [Asp, aspartic acid, reference compound], the EC50 on feline CaSR (setting [4]) was approximately 6.1 mM.

Take `NC(Cc1ccc(OP(=O)(O)O)cc1)C(=O)NC(CCC(=O)O)C(=O)NC(Cc1ccc(OP(=O)(O)O)cc1)C(=O)O` (stereo not drawn) [pTyr-Glu-pTyr] (H-[pY]-Glu-[pY]-OH; configuration not given here): the response at feline CaSR was half-maximal at 2.22 ± 0.22 mM (EC50). Take `CC(C)[C@H](NC(=O)CC[C@H](N)C(=O)O)C(=O)O` [γ-Glu-Val, reference compound]: the EC50 at feline CaSR (setting [4]) was approximately 3.9 mM. Still for that read-out and setting: with `CC(C)C(NC(=O)C(N)COP(=O)(O)O)C(=O)NC(COP(=O)(O)O)C(=O)O` (stereo not drawn) [pSer-Val-pSer] (H-[pS]-Val-[pS]-OH; configuration not given here) the figure was 2.63 ± 0.04 mM.

`CC(C)C(NC(=O)C(N)CCC(=O)O)C(=O)NC(CC(=O)O)C(=O)O` (stereo not drawn) [Glu-Val-Asp] came in with an EC50 on feline CaSR of 3.32 ± 0.77 mM. `CC[C@H](C)[C@H](N)C(=O)NCC(=O)N[C@@H](COP(=O)(O)O)C(=O)N[C@@H](CCC(=O)O)C(=O)N[C@@H](COP(=O)(O)O)C(=O)N[C@H](C(=O)N[C@@H](CCC(=O)O)C(=O)N[C@@H](CC(=O)O)C(=O)N[C@@H](CCC(N)=O)C(=O)O)[C@@H](C)O` [BC 06, Ile-Gly-pSer-Glu-pSer-Thr-Glu-Asp-Gln] (H-IG[pS]E[pS]TEDQ-OH; N-terminus and C-terminus assumed): the EC50 was 2 mM in assay [2] and approximately 1.6 mM at feline CaSR. DIG[pS]E[pS]TEDQA: the f-CaSR activity (EC50) in assay [1] came to 2 mM. IG[pS]E[pS]TEDQA: the f-CaSR activity (EC50) in assay [1] worked out at 2 mM.

In turn, `CC(NC(=O)C(N)CC(=O)O)C(=O)NC(CCC(=O)O)C(=O)O` (stereo not drawn) [Asp-Ala-Glu] (H-Asp-Ala-Glu-OH; configuration not given here) returned an EC50 at feline CaSR of 3.54 ± 0.05 mM. With `CSCC[C@H](NC(=O)CC[C@H](N)C(=O)O)C(=O)O` [γ-Glu-Met, reference compound], the EC50 at feline CaSR (setting [4]) was approximately 6.7 mM.

B1: Asp-Val-Glu (peptide)
peptide: DVE
Regarding B1, in assay [3], the “f-CaSR activity (EC50)” value was found to be 6.32 mM.
